Where two headings read alike, the source gives them in different places.
Target: T1, human CGT (Homo sapiens, UniProt Q16880)
T1 sequence (Q16880 21-541): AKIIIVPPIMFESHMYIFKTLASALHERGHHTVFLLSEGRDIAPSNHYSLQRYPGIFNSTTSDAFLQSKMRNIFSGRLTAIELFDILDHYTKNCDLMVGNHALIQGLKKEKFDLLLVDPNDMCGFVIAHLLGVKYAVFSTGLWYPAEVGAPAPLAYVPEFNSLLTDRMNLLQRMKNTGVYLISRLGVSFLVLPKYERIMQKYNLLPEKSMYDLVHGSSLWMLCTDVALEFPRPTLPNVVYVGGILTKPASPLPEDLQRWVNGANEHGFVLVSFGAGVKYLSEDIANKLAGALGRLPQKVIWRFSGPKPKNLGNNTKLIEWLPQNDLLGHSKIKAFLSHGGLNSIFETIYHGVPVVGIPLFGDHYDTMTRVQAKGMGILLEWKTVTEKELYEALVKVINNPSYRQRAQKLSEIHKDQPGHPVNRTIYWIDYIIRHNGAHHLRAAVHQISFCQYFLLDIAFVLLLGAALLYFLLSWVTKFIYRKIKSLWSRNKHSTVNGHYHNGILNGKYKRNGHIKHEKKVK
Experiment: Assay 1: CGT Enzymatic Assay (RapidFire/MS/MS, 0.01% Tween 80)
Format: biochemical
Settings: Table 1, Compounds of Formula (I) and Formula (II), CGT enzymatic assay, read-out: IC50

[1] = C6-NBD-dihydro-galactosylceramide readout

| IC50 | IC50 [1] | Structure (SMILES) |
| --- | --- | --- |
| 1000 to 10000 nM |  | O=C1N(c2ccc(Br)cc2)CC(O)(c2cccs2)N1c1ccc(Br)cc1 (centres unmarked) [Example 7, 1,3-bis(4-bromophenyl)-4-hydroxy-4-(thiophen-2-yl)imidazolidin-2-one] |
| 1000 to 10000 nM |  | Cc1cccc(-c2c(C)n(-c3ccc(Cl)cc3)c(=O)n2-c2ccc(Cl)cc2)c1 [Compound 260, 1,3-bis(4-chlorophenyl)-4-methyl-5-(m-tolyl)-1,3-dihydro-2H-imidazol-2-one] |
| 1000 to 10000 nM |  | CC(C)c1cccc(C2(O)CN(c3ccc(Br)cc3)C(=O)N2c2ccc(Br)cc2)c1 (centres unmarked) [Compound 59, 1,3-bis(4-bromophenyl)-4-hydroxy-4-(3-isopropylphenyl)imidazolidin-2-one] |
| 1000 to 10000 nM |  | CCOc1cccc(C2(O)CN(c3ccc(Br)cc3)C(=O)N2c2ccc(Br)cc2)c1 (centres unmarked) [Compound 79, 1,3-bis(4-bromophenyl)-4-(3-ethoxyphenyl)-4-hydroxyimidazolidin-2-one] |
| < 1000 nM |  | CCc1cccc(C2(O)[C@H](C)N(c3ccc(Br)cc3)C(=O)N2c2ccc(Br)cc2)c1 (stereo partly drawn) [Compound 68-1, (5S)-1,3-bis(4-bromophenyl)-4-(3-ethylphenyl)-4-hydroxy-5-methylimidazolidin-2-one] |
| 10000 to 50000 nM |  | O=C1N(c2ccc(Br)cc2)C(=O)C(O)(c2cc3ccccc3s2)N1c1ccc(Br)cc1 (centres unmarked) [Example 214, 5-(benzo[b]thiophen-2-yl)-1,3-bis(4-bromophenyl)-5-hydroxyimidazolidine-2,4-dione] |
|  | < 1000 nM | N#Cc1ccc(N2C(=O)N(c3ccc(Br)cc3)C(O)(c3cccc(OC(F)(F)F)c3)C23CCC3)cc1 (centres unmarked) [Compound 292, 4-(7-(4-bromophenyl)-8-hydroxy-6-oxo-8-(3-(trifluoromethoxy)phenyl)-5,7-diazaspiro[3.4]octan-5-yl)benzonitrile] |
| 1000 to 10000 nM |  | Cc1c(-c2cccc(C(C)O)c2)n(-c2ccc(Cl)cc2)c(=O)n1-c1ccc(Cl)cc1 (centres unmarked) [Example 37, 1,3-bis(4-chlorophenyl)-4-(3-(1-hydroxyethyl)phenyl)-5-methyl-1,3-dihydro-2H-imidazol-2-one] |
| < 1000 nM |  | Cc1ccc(N2C(=O)N(c3ccc(C)cc3)C(O)(c3cccc(C#N)c3)C2C)cc1 (centres unmarked) [Compound 105, 3-(4-hydroxy-5-methyl-2-oxo-1,3-di-p-tolylimidazolidin-4-yl)benzonitrile] |
| 50000 to 100000 nM |  | O=C1N(c2ccc(Br)cc2)C(=O)C(O)(c2cccs2)N1c1ccc(Br)cc1 (centres unmarked) [Example 205, 1,3-bis(4-bromophenyl)-5-hydroxy-5-(thiophen-2-yl)imidazolidine-2,4-dione] |
| < 1000 nM |  | N#Cc1cccc(C2(O)N(c3ccc(C(F)(F)F)cc3)C(=O)N(c3ccc(C(F)(F)F)cc3)C23CCC3)c1 (centres unmarked) [Example 212, 3-(8-hydroxy-6-oxo-5,7-bis(4-(trifluoromethyl)phenyl)-5,7-diazaspiro[3.4]octan-8-yl)benzonitrile] |
| 1000 to 10000 nM |  | Cc1cc(C#N)cc(C2(O)CN(c3ccc(Cl)cc3)C(=O)N2c2ccc(Cl)cc2)c1 (centres unmarked) [Compound 102, 3-(1,3-bis(4-chlorophenyl)-4-hydroxy-2-oxoimidazolidin-4-yl)-5-methylbenzonitrile] |
| 1000 to 10000 nM |  | O=C1N(c2ccc(Cl)cc2)C2(CC2)C(O)(c2cccc(O)c2)N1c1ccc(Cl)cc1 (centres unmarked) [Example 227, 4,6-bis(4-chlorophenyl)-7-hydroxy-7-(3-hydroxyphenyl)-4,6-diazaspiro[2.4]heptan-5-one] |
| < 1000 nM |  | CC1(C)N(c2ccc(Cl)cc2)C(=O)N(c2ccc(Cl)cc2)C1(O)c1cccc(C#N)c1 (centres unmarked) [Compound 138, 3-(1,3-bis(4-chlorophenyl)-4-hydroxy-5,5-dimethyl-2-oxoimidazolidin-4-yl)benzonitrile] |
| < 1000 nM |  | CC(C)c1c(-c2cccc(C#N)c2)n(-c2ccc(Cl)cc2)c(=O)n1-c1ccc(Cl)cc1 [Example 44, 3-(1,3-bis(4-chlorophenyl)-5-isopropyl-2-oxo-2,3-dihydro-1H-imidazol-4-yl)benzonitrile] |
| > 50000 nM |  | O=C1N(c2ccc(Cl)cc2Cl)CC(O)(c2ccccc2)N1c1ccc(Cl)cc1Cl (centres unmarked) [Example 57, 1,3-bis(2,4-dichlorophenyl)-4-hydroxy-4-phenylimidazolidin-2-one] |

| IC50 | IC50 [1] | Structure (SMILES) |
| --- | --- | --- |
| 1000 to 10000 nM |  | Cc1cccc(C2(O)CN(c3ccc(Cl)cc3)C(=O)N2c2ccc(Cl)cc2)c1 (centres unmarked) [Example 34, 1,3-bis(4-chlorophenyl)-4-hydroxy-4-(m-tolyl)imidazolidin-2-one] |
| < 1000 nM |  | CC(C)c1c(-c2cccc(C#N)c2)n(-c2ccc(Br)cc2)c(=O)n1-c1ccc(Br)cc1 [Example 46, 3-(1,3-bis(4-bromophenyl)-5-isopropyl-2-oxo-2,3-dihydro-1H-imidazol-4-yl)benzonitrile] |
| > 50000 nM |  | C[C@]1(c2cccc(C(F)(F)F)c2)C(O)N(c2ccc(Cl)cc2)C(=O)N1c1ccc(Cl)cc1 (stereo partly drawn) [Example 190-1, (4S)-1,3-bis(4-chlorophenyl)-5-hydroxy-4-methyl-4-(3-(trifluoromethyl)phenyl)imidazolidin-2-one] |
| < 1000 nM |  | CC1(C)N(c2ccc(Cl)cc2)C(=O)N(c2ccc(Cl)cc2)C1(O)c1cc(Br)cc(C#N)c1 (centres unmarked) [Example 158, 3-(1,3-bis(4-chlorophenyl)-4-hydroxy-5,5-dimethyl-2-oxoimidazolidin-4-yl)-5-bromobenzonitrile] |
| 1000 to 10000 nM |  | Cc1c(-c2cccc(OC(F)(F)F)c2)n(-c2ccc(Br)cc2)c(=O)n1-c1ccc(Br)cc1 [Compound 262, 1,3-bis(4-bromophenyl)-4-methyl-5-(3-(trifluoromethoxy)phenyl)-1,3-dihydro-2H-imidazol-2-one] |
|  | < 1000 nM | Cc1ccc(N2C(=O)N(c3ccc(Cl)cc3)C3(COC3)C2(O)c2cccc(OC(F)(F)F)c2)cc1 (centres unmarked) [Compound 299, 5-(4-chlorophenyl)-8-hydroxy-7-(p-tolyl)-8-(3-(trifluoromethoxy)phenyl)-2-oxa-5,7-diazaspiro[3.4]octan-6-one] |
| < 1000 nM |  | CCc1c(-c2ccccc2)n(-c2ccc(Br)cc2)c(=O)n1-c1ccc(Br)cc1 [Compound 264, 1,3-bis(4-bromophenyl)-4-ethyl-5-phenyl-1,3-dihydro-2H-imidazol-2-one] |
| 10000 to 50000 nM |  | O=C1N(c2cccc(Cl)c2)C(=O)C(O)(c2ccccc2)N1c1cccc(Cl)c1 (centres unmarked) [Example 162, 1,3-bis(3-chlorophenyl)-5-hydroxy-5-phenylimidazolidine-2,4-dione] |
|  | < 1000 nM | COC[C@]1(C)N(c2ccc(Cl)cc2)C(=O)N(c2ccc(Cl)cc2)[C@]1(O)c1cccc(OC(F)(F)F)c1 [Compound 296-2, (4S,5S)-1,3-bis(4-chlorophenyl)-4-hydroxy-5-(methoxymethyl)-5-methyl-4-(3-(trifluoromethoxy)phenyl)imidazolidin-2-one] |
|  | < 1000 nM | COc1ccc(N2C(=O)N(c3ccc(OC)cc3)C(O)(c3cccc(OC(F)(F)F)c3)C2C(C)C)cc1 (racemic) [Example 329, (5S)-4-hydroxy-5-isopropyl-1,3-bis(4-methoxyphenyl)-4-(3-(trifluoromethoxy)phenyl)imidazolidin-2-one and (5R)-4-hydroxy-5-isopropyl-1,3-bis(4-methoxyphenyl)-4-(3-(trifluoromethoxy)phenyl)imidazolidin-2-one] |
|  | < 1000 nM | N#Cc1ccc(N2C(=O)N(c3ccc(C#N)cc3)C(O)(c3cccc(OC(F)(F)F)c3)C23CCCC3)cc1 (centres unmarked) [Example 326, 4,4′-(4-hydroxy-2-oxo-4-(3-(trifluoromethoxy)phenyl)-1,3-diazaspiro[4.4]nonane-1,3-diyl)dibenzonitrile] |
| > 50000 nM |  | O=C1N(c2ccc(Br)cc2)C(=O)C(O)(c2ccc(OC3CC3)cc2)N1c1ccc(Br)cc1 (centres unmarked) [Example 164, 1,3-bis(4-bromophenyl)-5-(4-cyclopropoxyphenyl)-5-hydroxyimidazolidine-2,4-dione] |
| 1000 to 10000 nM |  | O=c1n(-c2ccc(Cl)cc2)c(-c2cccc(Cl)c2)c(C2CCCO2)n1-c1ccc(Cl)cc1 (centres unmarked) [Compound 254, 4-(3-chlorophenyl)-1,3-bis(4-chlorophenyl)-5-(tetrahydrofuran-2-yl)-1,3-dihydro-2H-imidazol-2-one] |
| < 1000 nM |  | O=C1N(c2ccc(Cl)cc2)C2(CC2)C(O)(c2cccc(OC(F)F)c2)N1c1ccc(Cl)cc1 (centres unmarked) [Compound 236, 4,6-bis(4-chlorophenyl)-7-(3-(difluoromethoxy)phenyl)-7-hydroxy-4,6-diazaspiro[2.4]heptan-5-one] |
| 1000 to 10000 nM |  | O=C1N(c2ccc(Cl)c(Cl)c2)CC(O)(c2ccccc2)N1c1ccc(Cl)c(Cl)c1 (centres unmarked) [Example 32, 1,3-bis(3,4-dichlorophenyl)-4-hydroxy-4-phenylimidazolidin-2-one] |
|  | < 1000 nM | CC1(C)N(c2ccc(C#N)cc2)C(=O)N(c2ccc(Cl)cc2)C1(O)c1cccc(C#N)c1 (centres unmarked) [Example 309, 3-(3-(4-chlorophenyl)-1-(4-cyanophenyl)-4-hydroxy-5,5-dimethyl-2-oxoimidazolidin-4-yl)benzonitrile] |

| Structure (SMILES) | IC50 | IC50 [1] |
| --- | --- | --- |
| Cc1ccc(N2C(=O)N(c3ccc(C#N)cc3)C(O)(c3cccc(C#N)c3)C2(C)C)cc1 (centres unmarked) [Example 313, 3-(3-(4-cyanophenyl)-4-hydroxy-5,5-dimethyl-2-oxo-1-(p-tolyl)imidazolidin-4-yl)benzonitrile] |  | < 1000 nM |
| CCCC1N(c2ccc(Br)cc2)C(=O)N(c2ccc(Br)cc2)C1(O)c1ccccc1 (centres unmarked) [Compound 51] | < 1000 nM |  |
| Cc1ccc(N2C(=O)N(c3ccc(C#N)cc3)C(O)(c3cccc(C#N)c3)C23COC3)cc1 (centres unmarked) [Example 308, 3-(7-(4-cyanophenyl)-8-hydroxy-6-oxo-5-(p-tolyl)-2-oxa-5,7-diazaspiro[3.4]octan-8-yl)benzonitrile] |  | < 1000 nM |

Reference: patent US20190134005A1 (BioMarin Pharmaceutical Inc., priority 2016, published 2019)
